Patent publication US20100167311A1, “Oxidoreductases and Processes Utilising Such Enzymes” (priority 2006, published 2010)

Experiments:
type-1 site of NiR M150G [1] = molecular target: T1, type-1 site of NiR M150G (Alcaligenes faecalis, UniProt P38501, M186G); assay: biochemical; type: binding, A. faecalis S-6
T1 construct: His tag (C, cleaved yes); made in house
Source text: Spectroscopy and assays—The spectrophotometer was a Perkin Elmer Instruments Lambda 800.

NiR M150G = molecular target: T2, NiR M150G (Alcaligenes faecalis, UniProt P38501, M186G); assay: Activity assay monitoring oxidation of pseudoazurin, NiR M150G with external ligands; type: biochemical, A. faecalis S-6; conditions: for effect of external ligand on catalytic activity of NiR M150G: in words; for kcat^sat of NiR M150G saturated with external ligand: pseudoazurin 275-325 μM, nitrite 5 mM, 50 mM Mops pH 7.0
T2 construct: His tag (C, cleaved yes); made in house
Experimental: (§1) Activity assays were carried out by monitoring the oxidation of pseudoazurin as described (3). The concentrations of the electron donor pseudoazurin (275-325 μM) and the electron acceptor nitrite (5 mM) were saturating. The concentration of NiR was typically 1 nM. The buffer for activity assays was always 50 mM Mops pH 7.0. Whenever using volatile compounds, the cuvette was sealed with a PTFE stopper. All reported activities were calculated from initial rates. Apparent dissociation constants (KD^app) were obtained from a least-squares fit of activity (v) versus ligand concentration to v=v^NoLigand+Δv×[L]/(KD^app+[L]). The meaning of KD^app will be explained in the Discussion section.

type-1 site of NiR M150G [2] = molecular target: T1, type-1 site of NiR M150G; type: binding, A. faecalis S-6; conditions: versus NHE, NiR M150G with external ligand bound, interpreted as upper limit
Experimental: Potentiometric titrations—Potentiometric titrations were carried out as described by Dutton (47) in a cuvette held at 298 K in 100 mM potassium phosphate pH 7.0. The NiR concentration was typically 40 mM. Diaminodurol (2,3,5,6-tetramethyl-1,4-phenylenediamine) was used as a redox mediator at 100-200 μM. Potassium ferricyanide and sodium dithionite were used to change the potential of the solution. Visible absorption and the potential of the solution were monitored until both were stable. Spectra were recorded in the range of 510-800 nm since diaminodurol gives negligible absorbance in this region.
The recorded spectra were integrated using a routine written in Igor Pro (WaveMetrics Inc.). For base line correction this routine approximated the scattering contributions (due to aggregated protein) either by a linear approximation or by a method described elsewhere (48). […] The integrated absorbance versus potential was fitted to the Nernst equation with the number of electrons held at one. […]
in which EM^NL is the reduction potential without ligand, [L] denotes the free ligand concentration, KD^ox and KD^red are the ligand dissociation constants from the oxidized and reduced type-1 site respectively, R is the gas constant, F is the Faraday constant and T is the absolute temperature. […] The midpoint potential of the type-1 site with the external ligand bound (EM^L) was calculated from equation 2. […]

wt NiR = molecular target: T3, wt NiR (Alcaligenes faecalis, UniProt P38501); assay: Activity assay monitoring oxidation of pseudoazurin, wt NiR with external ligands; type: biochemical, A. faecalis S-6; conditions: for effect of external ligand on catalytic activity of wt NiR: in words
T3 construct: His tag (C, cleaved yes); made in house
Experimental: as §1

pseudoazurin [3] = molecular target: T4, pseudoazurin (UniProt P04377)
T4 sequence: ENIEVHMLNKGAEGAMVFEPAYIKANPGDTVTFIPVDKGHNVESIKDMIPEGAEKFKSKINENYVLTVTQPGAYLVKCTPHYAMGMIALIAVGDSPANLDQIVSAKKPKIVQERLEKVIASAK

[4] = in words; cited from earlier work
pseudoazurin, P04377 = molecular target: T5, pseudoazurin, P04377
T5 chain: T4 sequence

pseudoazurin [5] = assay: Catalytic activity of NiR variants with the physiological electron donor pseudoazurin and nitrite; type: biochemical, A. faecalis S-6; conditions: no external ligand; pseudoazurin 275-325 μM, nitrite 5 mM, 50 mM Mops pH 7.0
Experimental: as §1

T2 sequence (P38501 other isoform, or with tags, fused parts or gaps M186G): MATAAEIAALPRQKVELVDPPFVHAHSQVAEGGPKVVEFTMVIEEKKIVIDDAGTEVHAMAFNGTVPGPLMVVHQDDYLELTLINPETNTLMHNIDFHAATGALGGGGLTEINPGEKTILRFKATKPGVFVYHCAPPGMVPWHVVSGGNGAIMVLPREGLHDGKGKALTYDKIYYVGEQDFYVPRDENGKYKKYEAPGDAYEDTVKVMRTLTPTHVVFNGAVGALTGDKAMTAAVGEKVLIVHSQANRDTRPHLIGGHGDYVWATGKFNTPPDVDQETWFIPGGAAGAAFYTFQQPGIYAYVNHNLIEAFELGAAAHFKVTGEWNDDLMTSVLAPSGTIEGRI
T1 sequence (P38501 other isoform, or with tags, fused parts or gaps M186G): as above

Cc1cscn1 [4-methylthiazole]
Kd (type-1 site of NiR M150G [1]): 22 ± 3 mM

CC(N)=O [acetamide]
effect of external ligand on catalytic activity of NiR M150G (NiR M150G): restored the activity up to the level of wt NiR | kcat^sat of NiR M150G saturated with external ligand (NiR M150G): 374 ± 28 s⁻¹ | Kd (type-1 site of NiR M150G [1]): 71 ± 3 mM | fitted reduction potential with ligand bound (EM^L) (type-1 site of NiR M150G [2]): < 225 mV

CC#N [acetonitrile]
increase of catalytic activity (wt NiR; wt NiR): 50% | kcat^sat of NiR M150G saturated with external ligand (NiR M150G): >390^A s^−1 | Kd (type-1 site of NiR M150G [1]): 71.5 ± 7.3 mM

CSC [dimethylsulfide]
Kd (NiR M150G): 34 ± 7 mM | effect of external ligand on catalytic activity of NiR M150G (NiR M150G): restored the activity up to the level of wt NiR | kcat^sat of NiR M150G saturated with external ligand (NiR M150G): 373 ± 22 s⁻¹ | Kd (type-1 site of NiR M150G [1]): 21 ± 4 mM

CCSC [ethylmethylsulfide]
effect of external ligand on catalytic activity of wt NiR (wt NiR): constant activity | Kd (NiR M150G): > 73 mM | effect of external ligand on catalytic activity of NiR M150G (NiR M150G): activity doubled | kcat^sat of NiR M150G saturated with external ligand (NiR M150G): >292 s⁻¹ | Kd (type-1 site of NiR M150G [1]): 14 ± 6 mM

NC=O [formamide]
effect of external ligand on catalytic activity of wt NiR (wt NiR): constant activity | effect of external ligand on catalytic activity of NiR M150G (NiR M150G): activity doubled | kcat^sat of NiR M150G saturated with external ligand (NiR M150G): >255 s⁻¹

c1c[nH]cn1 [imidazole]
effect of external ligand on catalytic activity of wt NiR (wt NiR): decreased in activity | effect of external ligand on catalytic activity of NiR M150G (NiR M150G): decreased in activity | Kd (type-1 site of NiR M150G [1]): 52 ± 3 mM | rate of slow spectral change (absorption at 430 nm versus time, single exponential) (type-1 site of NiR M150G [1]; NiR M150G with imidazole 260 mM, 25° C.): 0.823 ± 0.003 h⁻¹

c1ccncc1 [pyridine]
fitted reduction potential with ligand bound (EM^L) (type-1 site of NiR M150G [2]): < 245 mV

nitrite reductase M150G from Alcaligenes faecalis S-6
kcat^sat (oxidation of pseudoazurin, no external ligand) (pseudoazurin [3]): 133 s⁻¹ | kcat^sat (oxidation of pseudoazurin, saturated with acetamide) (pseudoazurin [3]): 374 s⁻¹ | kcat^sat (oxidation of pseudoazurin, saturated with dimethylsulfide) (pseudoazurin [3]): 373 s⁻¹ | kcat^sat (oxidation of pseudoazurin, with acetonitrile) (pseudoazurin [3]): >390^A | kcat^sat (oxidation of pseudoazurin, with ethylmethylsulfide) (pseudoazurin [3]): > 292 s⁻¹ | kcat^sat (oxidation of pseudoazurin, with formamide) (pseudoazurin [3]): > 255 s⁻¹

nitrite reductase M150H from Alcaligenes faecalis S-6
kcat^sat (oxidation of pseudoazurin, no external ligand) (pseudoazurin [3]): 0.099 s⁻¹

nitrite reductase M150T from Alcaligenes faecalis S-6
kcat^sat (oxidation of pseudoazurin, no external ligand) (pseudoazurin [3]): 126 s⁻¹

B1: Achromobacter cycloclastes NiR M150Q: literature Met150Gln mutant of Achromobacter cycloclastes nitrite reductase (protein, UniProt P25006 39-378, looked up, variant M150Q)
Copper-containing nitrite …: AAGAAPVDISTLPRVKVDLVKPPFVHAHDQVAKTGPRVVEFTMTIEEKKLVIDREGTEIHAMTFNGSVPGPLMVVHENDYVELRLINPDTNTLLHNIDFHAATGALGGGALTQVNPGEETTLRFKATKPGVFVYHCAPEGMVPWHVTSGQNGAIMVLPRDGLKDEKGQPLTYDKIYYVGEQDFYVPKDEAGNYKKYETPGEAYEDAVKAMRTLTPTHIVFNGAVGALTGDHALTAAVGERVLVVHSQANRDTRPHLIGGHGDYVWATGKFRNPPDLDQETWLIPGGTAGAAFYTFRQPGVYAYVNHNLIEAFELGAAGHFKVTGEWNDDLMTSVVKPASM
electron transfer rate (literature) [4]: decreased below the detection limit

B2: wild-type Cu-containing nitrite reductase from Alcaligenes faecalis S-6 (protein)
chain: QGAVRKATAAEIAALPRQKVELVDPPFVHAHSQVAEGGPKVVEFTMVIEEKKIVIDDAGTEVHAMAFNGTVPGPLMVVHQDDYLELTLINPETNTLMHNIDFHAATGALGGGGLTEINPGEKTILRFKATKPGVFVYHCAPPGMVPWHVVSGMNGAIMVLPREGLHDGKGKALTYDKIYYVGEQDFYVPRDENGKYKKYEAPGDAYEDTVKVMRTLTPTHVVFNGAVGALTGDKAMTAAVGEKVLIVHSQANRDTRPHLIGGHGDYVWATGKFNTPPDVDQETWFIPGGAAGAAFYTFQQPGIYAYVNHNLIEAFELGAAAHFKVTGEWNDDLMTSVLAPSGT
kcat^sat (oxidation of pseudoazurin, no external ligand) (pseudoazurin, P04377): 416 s⁻¹ | kcat^sat (pseudoazurin [5]): 416 ± 10 s⁻¹
